Earlier results in patent US20020132751A1, “Detergent compositions” (Unilever Home & Personal Care USA, Division of Conopco, Inc., priority 2000, published 2002).

Details: grams of solid to form a saturated solution in 100 grams of water at 20° C.

SMILES | Water Solubility (g/100 g)
O=P(O)(O)OP(=O)(O)OP(=O)(O)O [Sodium tripolyphosphate anhydrous] | 15
O=BO[O-].[Na+] [Sodium perborate anhydrous] | 3.7
